Data as given in article PMC4965013, “Open Source Drug Discovery with the Malaria Box Compound Collection for Neglected Diseases and Beyond” (PLoS Pathogens, 2016).

What was measured:
P. falciparum HDAC1 = P. falciparum HDAC1 (Plasmodium falciparum, UniProt Q7K6A1); assay: PfHDAC1 HDAC glo I/II; assay type: biochemical; details: 50nM
S. mansoni adult worms = system: S. mansoni adult worms; design: method as in ref [91] (a number printed in a supplementary file, which may have a reference list of its own: not looked up in the article's list); details: ref [91]; read-out: Schistosoma mansoni adult worm EC50 J. Keiser; cited from earlier work
[1] = system: S. mansoni newly transformed schistosomula (NTS); design: method as in ref [91] (a number printed in a supplementary file, which may have a reference list of its own: not looked up in the article's list); details: ref [91]; read-out: Schistosoma mansoni newly transformed schistosomula EC50 J. Keiser; cited from earlier work
[2] = system: Schistosoma mansoni schistosomula (somules); assay: S. mansoni somules phenotypic screen Caffrey; details: 2.5 µM, 48 h
[3] = system: Schistosoma mansoni adult males; assay: S. mansoni adult phenotypic and motility screen Caffrey
[4] = system: P. falciparum 3D7 trophozoites; assay: Metabolomic fingerprint profiling LC-MS; assay type: cell-based, Plasmodium falciparum; design: UDP-D-glucose / ADP-D-glucose: unit not given here; details: for Acetyllysine / N-acetyl-L-ornithine / N-carbamoyl-L-aspartate / NADPH / dAMP / dCMP / dTDP / dTMP / dTTP / dihydroorotate / orotate / DLH / DLS/SDL/SID / PD / PEE / PVNF / 3-phosphoglycerate / ADP-D-glucose / ATP / CDP / D-sedoheptulose-1/7-phosphate / FAD / GMP / NAD+ / NADP+ / Octoluse Bisphosphate / Pyroglutamic acid / UDP-D-glucose / UDP-D-glucuronate / UDP-N-acetyl-glucosamine / UDP / UMP / UTP / a-ketoglutarate / citrate/isocitrate / cytidine / dATP / dGMP/AMP / fumarate / glucose-1/6-phosphate / glycerate / guanine / guanosine / hypoxanthine / indole / inosine / nicotinate / ornithine / phosphoenolpyruvate / pyruvate / ribose-phosphate / sarcosine/alanine / sn-glycerol-3-phosphate / succinate/methylmalonic acid / uridine / xanthosine: S2 Table Metabolomics; for Acetyllysine: metabolite Acetyllysine; for N-acetyl-L-ornithine: metabolite N-acetyl-L-ornithine; for N-carbamoyl-L-aspartate: metabolite N-carbamoyl-L-aspartate; for NADPH: metabolite NADPH; for dAMP: metabolite dAMP; for dCMP: metabolite dCMP; for dTDP: metabolite dTDP; for dTMP: metabolite dTMP; for dTTP: metabolite dTTP; for dihydroorotate: metabolite dihydroorotate; for orotate: metabolite orotate; for DLH: peptide DLH; for DLS/SDL/SID: peptide DLS/SDL/SID; for PD: peptide PD; for PEE: peptide PEE; for PVNF: peptide PVNF; for 3-phosphoglycerate: metabolite 3-phosphoglycerate; for ADP-D-glucose: metabolite ADP-D-glucose; for ATP: metabolite ATP; for CDP: metabolite CDP; for CDP / D-sedoheptulose-1/7-phosphate / GMP / Octoluse Bisphosphate / UDP / UMP / UTP / citrate/isocitrate / dGMP/AMP / fumarate / glucose-1/6-phosphate / glycerate / guanine / guanosine / inosine / pyruvate / sarcosine/alanine / succinate/methylmalonic acid / uridine / xanthosine: change in metabolite level after compound treatment; for D-sedoheptulose-1/7-phosphate: metabolite D-sedoheptulose-1/7-phosphate; for FAD: metabolite FAD; for GMP: metabolite GMP; for NAD+: metabolite NAD+; for NADP+: metabolite NADP+; for Octoluse Bisphosphate: metabolite Octoluse Bisphosphate; for Pyroglutamic acid: metabolite Pyroglutamic acid; for UDP-D-glucose: metabolite UDP-D-glucose; for UDP-D-glucuronate: metabolite UDP-D-glucuronate; for UDP-N-acetyl-glucosamine: metabolite UDP-N-acetyl-glucosamine; for UDP: metabolite UDP; for UMP: metabolite UMP; for UTP: metabolite UTP; for a-ketoglutarate: metabolite a-ketoglutarate; for citrate/isocitrate: metabolite citrate/isocitrate; for cytidine: metabolite cytidine; for dATP: metabolite dATP; for dGMP/AMP: metabolite dGMP/AMP; for fumarate: metabolite fumarate; for glucose-1/6-phosphate: metabolite glucose-1/6-phosphate; for glycerate: metabolite glycerate; for guanine: metabolite guanine; for guanosine: metabolite guanosine; for hypoxanthine: metabolite hypoxanthine; for indole: metabolite indole; for inosine: metabolite inosine; for 2_3-Diphosphoglyceric acid / 4-phosphopantothenate / 6-phospho-D-gluconate / FMN / IMP / Pyrophosphate / Sedoheptoluse bisphosphate / cyclic-AMP / glutathione disulfide / lactate / myo-inositol: metabolite level change after treatment; for nicotinate: metabolite nicotinate; for ornithine: metabolite ornithine; for phosphoenolpyruvate: metabolite phosphoenolpyruvate; for pyruvate: metabolite pyruvate; for ribose-phosphate: metabolite ribose-phosphate; for sarcosine/alanine: metabolite sarcosine/alanine; for sn-glycerol-3-phosphate: metabolite sn-glycerol-3-phosphate; for succinate/methylmalonic acid: metabolite succinate/methylmalonic acid; for uridine: metabolite uridine; for xanthosine: metabolite xanthosine
P. falciparum = assay: EC50 listed in S2 Table Metabolomics (used to set the concentration tested); assay type: cell-based; details: Plasmodium falciparum; EC50 used for Factor_XEC50 in metabolomics; read-out: EC50_nM
PfEg5 = system: PfEg5; design: method as in ref [29] (a number printed in a supplementary file, which may have a reference list of its own: not looked up in the article's list); details: ref [29]; cited from earlier work
PvEg5 = system: PvEg5; design: method as in ref [29] (a number printed in a supplementary file, which may have a reference list of its own: not looked up in the article's list); details: ref [29]; cited from earlier work
dUTPase = molecular target: T1, dUTPase (Plasmodium falciparum, UniProt Q8II92); assay: Bioaffinity Mass Spectrometry Screening, dUTPase; assay type: binding; details: compound:protein ~5:1
T1 construct: […]; made in house
Protocol: (§1) Bioaffinity Mass Spectrometry Screening Method
(§2) Recombinant proteins were prepared by the Van Voorhis group according to the same protocol as in [25]. Proteins were buffer-exchanged into a suitable volatile buffer (ammonium acetate or ammonium bicarbonate) for native ESI-MS. Depending on the protein, the buffer and its concentration is chosen to obtain the highest sensitivity in the mass spectrometer. We have chosen ammonium acetate buffer (10mM, pH 7) for these two proteins, dUTPase and 6-Phosphogluconolactonase.
(§3) High-resolution Fourier transform mass spectrometry (FTMS) can identify the molecular weight of the bound ligand. The difference between the mass-to-charge ratio (Δm/z) for the unbound protein and the [protein-bound ligand] complex ions was multiplied by the charge state (z) to directly afford the molecular weight of the bound ligand, using the following equation.
(§4) The BMSS assay was performed on 400 Malaria Box compounds against 25 Plasmodium falciparum proteins, which are critical in malaria cell growth and invasion. Pools of eight Malaria Box compounds (each compound 1 µL, 1 mM in methanol) were incubated with a P. falciparum protein one hour at room temperature. When a non-covalent complex was found, the molecular weight of the binding compound was deducted from the spectrum. On the basis of this information, a binding confirmation on the selected compound was performed. […]

PfCDPK4 = details: ref [25]; cited from earlier work
[5] = molecular target: T2, 6-Phosphogluconolactonase (Plasmodium falciparum, UniProt Q8IKU0); assay: Bioaffinity Mass Spectrometry Screening, 6-Phosphogluconolactonase; assay type: binding; details: compound:protein ~5:1
T2 construct: […]; His6 with linker ([…]) (N); made in house
Protocol: as §1, §2, §3, §4

[6] = system: P. falciparum W2 apicoplast; details: ref [60]; cited from earlier work
[7] = system: P. falciparum Dd2 apicoplast; details: ref [61]; cited from earlier work

Sequence of P. falciparum HDAC1 (Q7K6A1 entry or part of it): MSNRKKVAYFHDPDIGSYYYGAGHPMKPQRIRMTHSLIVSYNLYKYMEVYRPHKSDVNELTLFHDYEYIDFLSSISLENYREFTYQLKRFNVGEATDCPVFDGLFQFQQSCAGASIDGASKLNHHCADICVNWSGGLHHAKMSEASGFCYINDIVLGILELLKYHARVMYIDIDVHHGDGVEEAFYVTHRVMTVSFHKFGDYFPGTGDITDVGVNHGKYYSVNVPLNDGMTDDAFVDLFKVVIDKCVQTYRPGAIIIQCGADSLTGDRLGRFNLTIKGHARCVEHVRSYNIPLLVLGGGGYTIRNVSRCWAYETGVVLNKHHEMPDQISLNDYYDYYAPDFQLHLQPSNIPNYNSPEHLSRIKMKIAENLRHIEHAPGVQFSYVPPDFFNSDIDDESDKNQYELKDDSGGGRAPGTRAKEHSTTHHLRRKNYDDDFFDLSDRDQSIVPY
T2 sequence (Q8IKU0 1-327): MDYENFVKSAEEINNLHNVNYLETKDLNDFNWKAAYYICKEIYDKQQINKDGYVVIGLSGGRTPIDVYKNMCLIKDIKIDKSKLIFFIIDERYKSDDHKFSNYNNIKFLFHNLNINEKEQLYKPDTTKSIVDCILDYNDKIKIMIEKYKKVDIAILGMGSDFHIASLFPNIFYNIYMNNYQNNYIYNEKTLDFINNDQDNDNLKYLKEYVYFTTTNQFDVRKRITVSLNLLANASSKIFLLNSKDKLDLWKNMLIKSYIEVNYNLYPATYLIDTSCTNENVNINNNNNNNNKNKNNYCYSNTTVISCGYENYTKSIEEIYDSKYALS
T1 sequence (Q8II92 whole entry, added parts left off): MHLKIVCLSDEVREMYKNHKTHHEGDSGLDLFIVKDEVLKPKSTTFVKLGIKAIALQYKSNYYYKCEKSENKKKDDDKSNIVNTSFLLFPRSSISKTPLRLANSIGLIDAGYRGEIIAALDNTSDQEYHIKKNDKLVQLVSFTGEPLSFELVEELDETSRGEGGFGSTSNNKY

CC(/C=C/C(=O)NO)=C\[C@@H](C)C(=O)c1ccc(N(C)C)cc1 [trichostatin A]
PfHDAC1 % inhibition (P. falciparum HDAC1): 89.9 ± 0.5%

O=C(C1CCCCC1)N1CC(=O)N2CCc3ccccc3C2C1 (centres unmarked) [Praziquantel]
EC50 (S. mansoni adult worms): 200 nM | EC50 [1]: 2200 nM | somule severity score [2]: 4 | S. mansoni adult males 48hr motility assay ([3]; 48 h, 5µM): zero | S. mansoni adult males visual tox scale, 0 = none, 4=most damaged ([3]; 48hr at 5 µM): 4

COc1cccc(C=Cc2nc(=O)c3ccccc3o2)c1OC [MMV666693]
Acetyllysine [4]: 0.1397 | N-acetyl-L-ornithine [4]: 0.2363 | N-carbamoyl-L-aspartate [4]: 3.172 | NADPH [4]: 0.2825 | dAMP [4]: -0.08701 | dCMP [4]: 0.2474 | dTDP [4]: -0.7354 | dTMP [4]: -0.4318 | dTTP [4]: -0.1932 | dihydroorotate [4]: 3.894 | orotate [4]: -0.9184 | DLH [4]: -0.06293 | DLS/SDL/SID [4]: -0.09731 | PD [4]: 0.5949 | PEE [4]: -0.05317 | PVNF [4]: -0.1239 | 3-phosphoglycerate [4]: 0.2329 | ADP-D-glucose [4]: 0.3504 | ATP [4]: 0.6585 | CDP [4]: -0.7718 | D-sedoheptulose-1/7-phosphate [4]: 0.3935 | FAD [4]: 0.6886 | GMP [4]: 2.325 | NAD+ [4]: 0.3862 | NADP+ [4]: 0.1667 | Octoluse Bisphosphate [4]: 0.214 | Pyroglutamic acid [4]: -0.09945 | UDP-D-glucose [4]: 0.3609 | UDP-D-glucuronate [4]: 0.4012 | UDP-N-acetyl-glucosamine [4]: 0.3198 | UDP [4]: -0.8743 | UMP [4]: -0.7276 | UTP [4]: -0.635 | a-ketoglutarate [4]: -0.04301 | citrate/isocitrate [4]: -0.1473 | cytidine [4]: 0.3511 | dATP [4]: 0.7712 | dGMP/AMP [4]: -0.2164 | fumarate [4]: 0.7025 | glucose-1/6-phosphate [4]: 0.5191 | glycerate [4]: -0.06297 | guanine [4]: 0.6599 | guanosine [4]: 0.8246 | hypoxanthine [4]: 0.08871 | indole [4]: 0.0369 | inosine [4]: 0.4625 | 2_3-Diphosphoglyceric acid [4]: 0.5942 | 4-phosphopantothenate [4]: 0.0573 | 6-phospho-D-gluconate [4]: 0.4861 | FMN [4]: 0.3054 | IMP [4]: 0.1618 | Pyrophosphate [4]: 0.3262 | Sedoheptoluse bisphosphate [4]: 0.378 | cyclic-AMP [4]: 0.4484 | glutathione disulfide [4]: 0.6375 | lactate [4]: 0.2118 | myo-inositol [4]: 0.3466 | nicotinate [4]: 0.3154 | ornithine [4]: 0.1755 | phosphoenolpyruvate [4]: 0.1481 | pyruvate [4]: -0.005171 | ribose-phosphate [4]: 0.3602 | sarcosine/alanine [4]: 0.4257 | sn-glycerol-3-phosphate [4]: 0.6187 | succinate/methylmalonic acid [4]: 0.3609 | uridine [4]: -0.1766 | xanthosine [4]: 0.5199 | EC50 (P. falciparum): 23.8 nM | PfEg5 ATPase inhibition in words (PfEg5): selective inhibitor | PvEg5 ATPase inhibition in words (PvEg5): selective inhibitor

O=c1nc(C=Cc2ccc(Br)cc2)oc2ccccc12 [MMV666599]
binding to dUTPase (confirmation) (dUTPase): binding | IC50 (PfCDPK4): 700 nM

O=C(O)C1Cc2c([nH]c3ccccc23)C(c2ccc(Cl)cc2Cl)N1 (centres unmarked) [MMV008138]
binding to 6-Phosphogluconolactonase (confirmation) [5]: binding | Acetyllysine [4]: 0.5387 | N-acetyl-L-ornithine [4]: 0.5503 | N-carbamoyl-L-aspartate [4]: 0.144 | NADPH [4]: 0.4869 | dAMP [4]: 0.6135 | dCMP [4]: 0.1541 | dTDP [4]: 0.7214 | dTMP [4]: 0.483 | dTTP [4]: 0.2857 | dihydroorotate [4]: 0.2096 | orotate [4]: 0.1204 | DLH [4]: -0.1546 | DLS/SDL/SID [4]: 0.007657 | PD [4]: 0.2545 | PEE [4]: 0.5615 | PVNF [4]: -0.063 | 3-phosphoglycerate [4]: 0.3297 | ADP-D-glucose [4]: 0.3003 | ATP [4]: 0.2312 | CDP [4]: 0.6827 | D-sedoheptulose-1/7-phosphate [4]: 0.414 | FAD [4]: 0.2533 | GMP [4]: -0.6458 | NAD+ [4]: 0.09564 | NADP+ [4]: 0.2678 | Octoluse Bisphosphate [4]: 0.757 | Pyroglutamic acid [4]: -0.1569 | UDP-D-glucose [4]: 0.2273 | UDP-D-glucuronate [4]: 0.2472 | UDP-N-acetyl-glucosamine [4]: 0.2573 | UDP [4]: 0.7153 | UMP [4]: -0.1378 | UTP [4]: 0.4566 | a-ketoglutarate [4]: -0.4582 | citrate/isocitrate [4]: -0.1476 | cytidine [4]: -0.2541 | dATP [4]: 0.1704 | dGMP/AMP [4]: 0.6095 | fumarate [4]: 0.1788 | glucose-1/6-phosphate [4]: 0.6615 | glycerate [4]: 0.3332 | guanine [4]: -0.07738 | guanosine [4]: -0.4378 | hypoxanthine [4]: -0.1251 | indole [4]: -0.05929 | inosine [4]: -0.03831 | 2_3-Diphosphoglyceric acid [4]: 0.5774 | 4-phosphopantothenate [4]: 0.6234 | 6-phospho-D-gluconate [4]: 0.4127 | FMN [4]: 0.5115 | IMP [4]: 0.3745 | Pyrophosphate [4]: 0.4065 | Sedoheptoluse bisphosphate [4]: 0.7391 | cyclic-AMP [4]: 0.217 | glutathione disulfide [4]: 0.4434 | lactate [4]: -0.4969 | myo-inositol [4]: 0.6581 | nicotinate [4]: -0.1339 | ornithine [4]: 0.07192 | phosphoenolpyruvate [4]: 0.04449 | pyruvate [4]: -0.3198 | ribose-phosphate [4]: 0.3445 | sarcosine/alanine [4]: 0.05421 | sn-glycerol-3-phosphate [4]: -0.3078 | succinate/methylmalonic acid [4]: 0.03332 | uridine [4]: -0.07029 | xanthosine [4]: -0.1854 | EC50 (P. falciparum): 350 nM | rescue by IPP supplementation in words [6]: highest level of rescue | apicoplast targeting in words [7]: targets the apicoplast
